Laboratory results from publication PMC11189555, “Aryl amino acetamides prevent Plasmodium falciparum ring development via targeting the lipid-transfer protein PfSTART1” (Nature Communications, 2024).
Values joined by “and” are separate entries in the source; they are usually repeats but may differ in a detail not shown here. Equal values may be shown once. Read-outs that look alike come from different tables or passages of the source.

Key:
CR-WT parasites = assay: Growth inhibition assay (72 h, LDH activity); assay type: cell-based, Plasmodium falciparum; conditions: for EC50: n = 3
Description: Parasite growth assays with inhibitory compounds were performed as per[11] and are fully described in the Supplementary Information.
Molecular biology and transfection of P. falciparum: CRISPR method.
The full 5’ homology region of pfstart1 (either WT, N309K or N330K) was amplified from pPfSTART1-HA-2A-Neo-glmS with the same 5’ BglII primer and a new 3’ primer that replaced with PstI with SpeI and introduced a stop codon. The PCR product was then digested with BglII and SpeI and inserted into similarly digested p1.2 parasite vector2. The p1.2 vector had previously been inserted with a homology region amplified from the 3’ end of the pfstart1 gene (3’HB) to form a second homology block for double recombination. The primers used to amplify 3’HB are listed primers listed in […]
60 μg of p1.2-PfSTART1(WT/N309K/N330K) plasmid was linearised with KasI, precipitated in 3 M sodium acetate and ethanol (70% final concentration) overnight at -20°C. The DNA pellet was washed in cold 70% ethanol and resuspended in cytomix 3.
50 μ M of crRNA ( Table S 2) and 50 μM of tracRNA (Integrated DNA Technologies) were allowed to form a duplex (5 min at 95°C), and Cas9 enzyme (Integrated DNA Technologies) was added, and incubated for 20 min at room temperature 4. This crRNA -tracRNA -Cas9 mix was added to each DNA preparation and transfected to 3D7 ring parasites using the Bio -Rad Gene Pulser at 310 V and 950 μF.
Parasites containing the transfected DNA were selected using 2.5 nM WR99210 (Jacobus). Parasites lines were cloned using limiting dilution. Correct integration was tested by PCR (using primer START_5’UTR.F and START_Int.R1 , Table S 2), and sequencing was done using the primers START_3F and START_Int.R2 (Table S 2).
Growth inhibition assays. Synchronised ring-stage parasites (0.3-0.6% parasitemia, 2% haematocrit) were grown for 72 h in a serial-dilution of the compound under […]
and compound 4. Note that M-833 was first purchased from MolPort (MolPort -002-267-916) then made in-house at WEHI: the differences observed in EC50s across experiments are attributed to the different batches of M -833. For some experiments, 0, 0.25 or 2.5 mM of glucosamine (GlcN) was also added. Experiments were set up in technical duplicates or triplicates. Following a freeze -thaw cycle, lactate dehydrogenase (LDH) activity was assessed as an indicator of parasite growt h 5. 30 μL of parasite culture was incubated for 30 min in the dark with 75 μL Malstat mixture (0.1 M Tris pH 9.0, 20 g/L lactic acid, pH 7.5, 0.2% Triton-X100, 0.5 g/L acetylpyridine adenine dinucleotide (APAD, Sigma), 200 μg/mL nitroblue tetrazolium (NBT; Sigma), 1 μg/mL phenozine ethosulfate (PES; Sigma)). Absorbance was then measured at 650 nm, transformed using the formula below, plotted against the logarithm of the concentrations, and a non-linear regression (log(inhibitor) vs. response, variable slope) was calculated using GraphPad Prism to assess the half-inhibitory […]
Growth inhibition % = (1 − average(sample)− average(uRBC)) ∗ 100 […]
The DMSO samples were also used to assess growth of parasite in the presence of 0.25 and 2.5 mM GlcN (normalised by DMSO in 0 mM GlcN). […]

[1] = system: female gametes from mature stage V gametocytes; assay: Dual gamete formation assay: female gamete formation (Pfs25 expression); assay type: cell-based, Plasmodium falciparum
Description: The compounds were tested in the P. falciparum Dual Gamete Formation Assay (PfDGFA)[84], fully described in the Supplementary Information. […]
Dual gamete formation assays. The compounds were tested in the P. falciparum Dual Gamete Formation Assay (PfDGFA) 13. Briefly, mature stage V gametocytes were exposed to compounds for 48 h at 37°C in 384 well plates in gametocyte culture medium (RPMI 1640 supplemented with 25 mM HEPES, 50 μg/mL hypoxanthine, 4.8 g/L NaHCO3, 2 mM L-glutamine, 5% pooled type AB serum, 0.5% Albumax II (Gibco)) under a 1% O2, 3% CO2, 96% N2 environment. Gametogenesis was then triggered by the addition of 10 μL ookinete medium (gametocyte culture medium supplemented with 100 μM xanthurenic acid and 0.27 µg/mL Cy3-labelled anti-Pfs25 antibody) to each well at room temperature. Plates were then cooled on a metal block at 4°C for four min to ensure even cooling and then stabilised for a further 4 min at 28°C. At 20 min post-induction, male gametogenesis was recorded in each well by automated brightfield microscopy using a x4 objective lens and 1.5x magnifier (x6 effective magnification). Afterward, plates were incubated in the dark at room temperature for 24 h and then female gametogenesis recorded in each well by automated fluorescence microscopy (anti-Pfs25-positive cells). All experiments were performed in quadruplicate with DMSO and cabamiquine (DDD107498)17 as negative and positive controls respectively. All data was evaluated in comparison to the positive and negative controls to calculate percentage inhibition of male and female gametocytes, and dose response analysis and IC50 calculation performed using GraphPad Prism. […]

`Cc1cc(Cl)c(S(=O)(=O)N2CCCC2)cc1OCC(=O)NC1CCCCC1` [M-833] was tested, and the “Growth inhibition assay, NORMALISED” value (CR-WT parasites; CR-WT, 0 mM GlcN, conc 41.1523 nM) was 25.7439 and 21.0208, the “Growth inhibition assay, NORMALISED” value (CR-WT parasites; CR-WT, 0 mM GlcN, conc 123.457 nM) was 61.3173 and 56.525 and the “Growth inhibition assay, NORMALISED” value (CR-WT parasites; CR-WT, 0 mM GlcN, conc 370.37 nM) was 82.8843. The “Growth inhibition assay, NORMALISED” value (CR-WT parasites; CR-WT, 0 mM GlcN, conc 1111.11 nM) was 89.7059, the “Growth inhibition assay, NORMALISED” value (CR-WT parasites; CR-WT, 0 mM GlcN, conc 3333.33 nM) was 91.3866 and the “Growth inhibition assay, NORMALISED” value (CR-WT parasites; CR-WT, 0 mM GlcN, conc 10000 nM) was 91.9797. The “NORMALISED (growth inhibition, LDH absorbance vs DMSO and uRBC)” value (CR-WT parasites; CR-WT, 0.25 mM GlcN, M833 dilution point 1 of 10 (starting concentration 10 uM)) was 91.6378 and 97.2065 and 92.208, the “NORMALISED (growth inhibition, LDH absorbance vs DMSO and uRBC)” value (CR-WT parasites; CR-WT, 0.25 mM GlcN, M833 dilution point 2 of 10 from 10 uM start) was 88.8272 and 91.5474 and 95.4251 and the “NORMALISED (growth inhibition, LDH absorbance vs DMSO and uRBC)” value (CR-WT parasites; CR-WT, 0.25 mM GlcN, M833 dilution point 3 of 10 from 10 uM start) was 89.2783 and 89.1988 and 95.5364. The “NORMALISED (growth inhibition, LDH absorbance vs DMSO and uRBC)” value (CR-WT parasites; CR-WT, 0.25 mM GlcN, M833 dilution point 4 of 10 from 10 uM start) was 88.272 and 87.9755 and 93.8563, the “NORMALISED (growth inhibition, LDH absorbance vs DMSO and uRBC)” value (CR-WT parasites; CR-WT, 0.25 mM GlcN, M833 dilution point 5 of 10 from 10 uM start) was 75.3643 and 67.6575 and 81.1437 and the “NORMALISED (growth inhibition, LDH absorbance vs DMSO and uRBC)” value (CR-WT parasites; CR-WT, 0.25 mM GlcN, M833 dilution point 6 of 10 from 10 uM start) was 45.0382 and 30.6544 and 52.9049. The “NORMALISED (growth inhibition, LDH absorbance vs DMSO and uRBC)” value (CR-WT parasites; CR-WT, 2.5 mM GlcN, M833 dilution point 1 of 10 (starting concentration 10 uM)) was 89.8305 and 92.5684 and 90.1213, the “NORMALISED (growth inhibition, LDH absorbance vs DMSO and uRBC)” value (CR-WT parasites; CR-WT, 2.5 mM GlcN, M833 dilution point 2 of 10 from 10 uM start) was 86.1896 and 88.6745 and 91.3765 and the “NORMALISED (growth inhibition, LDH absorbance vs DMSO and uRBC)” value (CR-WT parasites; CR-WT, 2.5 mM GlcN, M833 dilution point 3 of 10 from 10 uM start) was 89.5794 and 86.621 and 91.7037. The “NORMALISED (growth inhibition, LDH absorbance vs DMSO and uRBC)” value (CR-WT parasites; CR-WT, 2.5 mM GlcN, M833 dilution point 4 of 10 from 10 uM start) was 86.2524 and 82.3118 and 91.2012, the “NORMALISED (growth inhibition, LDH absorbance vs DMSO and uRBC)” value (CR-WT parasites; CR-WT, 2.5 mM GlcN, M833 dilution point 5 of 10 from 10 uM start) was 84.1808 and 81.8139 and 88.9226 and the “NORMALISED (growth inhibition, LDH absorbance vs DMSO and uRBC)” value (CR-WT parasites; CR-WT, 2.5 mM GlcN, M833 dilution point 6 of 10 from 10 uM start) was 79.5355 and 74.3155 and 81.4326. For the same compound, the “NORMALISED (growth inhibition, LDH absorbance vs DMSO and uRBC)” value (CR-WT parasites; CR-WT, 2.5 mM GlcN, M833 dilution point 7 of 10 from 10 uM start) was 64.0929 and 56.4406 and 58.0509, the “NORMALISED (growth inhibition, LDH absorbance vs DMSO and uRBC)” value (CR-WT parasites; CR-WT, 2.5 mM GlcN, M833 dilution point 8 of 10 from 10 uM start) was 44.6955 and 44.5084 and 37.5789 and the “NORMALISED (growth inhibition, LDH absorbance vs DMSO and uRBC)” value (CR-WT parasites; CR-WT, 2.5 mM GlcN, M833 dilution point 9 of 10 from 10 uM start) was 25.0175 and 29.9435 and 28.2047. For the same compound, the “NORMALISED (growth inhibition, LDH absorbance vs DMSO and uRBC)” value (CR-WT parasites; CR-WT, 2.5 mM GlcN, M833 dilution point 10 of 10 from 10 uM start) was 14.8750 and 11.4878 and 17.8749, the EC50 (CR-WT parasites; Plasmodium falciparum, 72 h, Fig 2D, CR-WT, 72 h, read-out: EC50 (95% confidence interval)) was 51.2 nM and the inhibition at 0.37037 µM (CR-WT parasites; Plasmodium falciparum, CR-WT, 0 mM GlcN, conc 370.37 nM, read-out: Growth inhibition assay, NORMALISED) was 88.3%. It also gave an inhibition at 1.11111 µM (CR-WT parasites; Plasmodium falciparum, CR-WT, 0 mM GlcN, conc 1111.11 nM, read-out: Growth inhibition assay, NORMALISED) of 91.9%, an inhibition at 3.33333 µM (CR-WT parasites; Plasmodium falciparum, CR-WT, 0 mM GlcN, conc 3333.33 nM, read-out: Growth inhibition assay, NORMALISED) of 91.6% and an inhibition at 10 µM (CR-WT parasites; Plasmodium falciparum, CR-WT, 0 mM GlcN, conc 10000 nM, read-out: Growth inhibition assay, NORMALISED) of 93.5%. The EC50 (CR-WT parasites; Plasmodium falciparum, read-out: EC50 M-833 (95% confidence interval), Fig 3F, CR-WT, 0.25 mM GlcN) was 39.6 nM, the EC50 (CR-WT parasites; Plasmodium falciparum, read-out: EC50 M-833 (95% confidence interval), Fig 3F, CR-WT, 2.5 mM GlcN) was 6.58 nM and the “fold reduction of EC50 on addition of 2.5 mM GlcN” value (CR-WT parasites; {}) was 7.8 fold. The “inhibition of female gamete formation” value ([1]; 1 µM, 48 h treatment of mature gametocytes) was “no inhibition” and the “Dual Gamete Formation Assay: Female at 1 µM, Mean” value ([1]; mean of 4 plates) was -1.423.
